Measurements taken from US20120134933A1, “USE OF HIGH-DOSES OF MONOMERIC CONTRAST MEDIUM CONTAINING IODINE IN X-RAY DIAGNOSTICS, IN PARTICULAR IN INTERVENTIONAL X-RAY DIAGNOSTICS AND IN RADIATION THERAPY ASSISTED BY CONTRAST MEDIA CONTAINING IODINE” (BAYER PHARMA AKTIENGESELLSCHAFT, priority 2009, published 2012).

Experiments:
Type in all cases: in vivo, Wistar Han rats
tubular cells = assay: Vacuolization in the kidney 24 hours after injection of XCM (histology of paraffin sections); settings: rat, 4 g of iodine per kg of BW i.v.; for degree of vacuolization in the kidney (in words): compared among monomeric XCMs
Procedure: (§1) For the study, use was made of the following XCMs, each obtained from their producer. The monomeric XCMs investigated were iopromide 300 (Bayer Vital, Leverkusen), iomeprol 300 (Altana, Konstanz, Germany), and iohexyl 350 (Omnipaque, GE Healthcare, Munich, Germany). For comparison, Isovist 300 (Bayer Vital, Leverkusen) and iodixanol 320 and iodixanol 270 (Visipaque, GE Healthcare, Munich, Germany), two dimeric XCMs, were also included in the study. The XCMs were injected in one dose of 4 g per kg of body weight (BW). As with all toxicological issues, it should be noted that the conversion to the human dose has to be based on body surface area. Thus, 4 g of iodine per kg of BW in the rat correspond to about 0.6 g of iodine per kg of BW in humans.
(§2) Wistar Han (CRL: WI) rats (male; 230-300 g) were obtained from Charles River (Sulzfeld, Germany). The animals were kept under normal laboratory conditions at a temperature of 22° C. and a night/day rhythm of 12 hours. The animals had access to standard feed and water ad libitum. The animals were kept and treated in accordance with the German animal welfare guidelines.
(§3) The respective XCMs were intravenously (i.v.) injected in one dose of 4 g of iodine per kg of BW (corresponds to 0.6 g of iodine per kg of BW in humans) into the tail vein. The XCMs were manually injected as a bolus, followed by a 0.2 ml bolus of saline solution. Each test group consisted of 6 test animals. The iodine concentrations in the kidneys were determined ex vivo by X-ray fluorescence analysis (XFA). 24 hours after the XCM injection, the animals were sacrificed and both kidneys were removed. The kidneys were lysed in 10% KOH, and the iodine concentration in the sample was subsequently determined by XFA. The iodine concentrations in the renal cortex were determined 24 hours after the injection using a 64-slice CT scanner (Sensation 64, Siemens Medical Solutions, Erlangen, Germany). Scanner settings (80 kV, 120 mAseff) were used for all investigations, and the reconstructions were carried out with an image field of 70×70 mm and a thickness of 1 mm The X-ray attenuation in Hounsfield units (HU) was determined in the cortex of the kidney in 3 independent regions of interest (ROI) (FIG. 2). All data were carried out by two independent blinded readers.
To determine the degree of vacuolization, a kidney was removed 24 after the injection of the XCMs and a medial piece of tissue was fixed in formaldehyde and embedded in paraffin. The microtome sections were stained with hematoxylin, and the degree of vacuolization was determined. The determination of the degree of vacuolization was carried out in a blinded experiment by Dr. Haider, Institut für Tierpathologie [Institute for Animal Pathology].

[1] = Renal iodine content 24 hours after injection of XCM, X-ray fluorescence analysis (XFA) of lysed kidneys; settings: rat, 4 g of iodine per kg of BW i.v., mean +/- SD, 6 animals
Procedure: as §1, §2
as §3, with “The XCMs were manually injected as a bolus, followed by a 0.2 ml bolus of saline solution. Each test group consisted of 6 test animals.” left out, “24 hours after the XCM injection, the animals were sacrificed and both kidneys were removed.” left out

[2] = Renal cortex iodine content 24 hours after injection of XCM, X-ray attenuation by CT; settings: rat, 4 g of iodine per kg of BW i.v., 80 kV, mean +/- SD, 6 animals
Procedure: as §1, §2
as §3, with “The XCMs were manually injected as a bolus, followed by a 0.2 ml bolus of saline solution. Each test group consisted of 6 test animals.” left out, “24 hours after the XCM injection, the animals were sacrificed and both kidneys were removed.” left out

[3] = of 6 animals, listed as Iopromide 300
[4] = of 6 animals, listed as iopromide

degree of vacuolization in the kidney (in words) (tubular cells) | Moderate degree of vacuolization (number of animals) (tubular cells; of 6 animals) | Slight degree of vacuolization (number of animals) (tubular cells; of 6 animals) | X-ray attenuation in the renal cortex (CT) [2] | Slight degree of vacuolization (number of animals) (tubular cells; of 6 animals, listed as Iomeprol 300) | No vacuolization (number of animals) (tubular cells; [3]) | Slight degree of vacuolization (number of animals) (tubular cells; [3]) | No vacuolization (number of animals) (tubular cells; [4]) | Slight degree of vacuolization (number of animals) (tubular cells; [4]) | Compound | iodine concentration in the kidney (XFA) [1]
increased vacuolization | 3 | 3 | – | – | – | – | – | – | CC(=O)N(CC(O)CO)c1c(I)c(C(=O)NCC(O)CO)c(I)c(C(=O)NCC(O)CO)c1I (centres unmarked) [iohexyl 350] | –
increased vacuolization | – | all the animals investigated | 45.0+/−5.9 HU | 6 | – | – | – | – | CN(C(=O)CO)c1c(I)c(C(=O)NCC(O)CO)c(I)c(C(=O)NCC(O)CO)c1I (centres unmarked) [iomeprol 300] | 0.738+/−0.098 mg of iodine per g of kidney tissue
lowest degree of vacuolization | – | – | significantly lowest values | – | 2 | 4 | Two | four | COCC(=O)Nc1c(I)c(C(=O)NCC(O)CO)c(I)c(C(=O)N(C)CC(O)CO)c1I (centres unmarked) [iopromide 300, N,N′-bis(2,3-dihydroxypropyl)-2,4,6-triiodo-5-[(methoxyacetyl)amino]-N-methyl-1,3-benzenedicarboxamide] | significantly lowest iodine contents
– | – | – | 217.2+/−29.4 HU | – | – | – | – | – | CN(C(=O)CC(=O)N(C)c1c(I)c(C(=O)NC(CO)C(O)CO)c(I)c(C(=O)NC(CO)C(O)CO)c1I)c1c(I)c(C(=O)NC(CO)C(O)CO)c(I)c(C(=O)NC(CO)C(O)CO)c1I (centres unmarked) [iotrolan 300] | 3.4+/−0.6 mg of iodine per g of kidney tissue
